Experimental data from patent publication US20100317706A1, “HNF4alpha MODULATORS AND METHODS OF USE” (Bumham Institute for Medical Research, priority 2009, published 2010).
pKd: −log10 of the molar value. “Also recorded” adds a separate entry of the source.

Tests used:
[1] = test system: HNF1α; assay: HNF1α transcription; type: cell-based
Experimental: HNF1α is a downstream target of HNF4α and has a known binding site on the human insulin gene promoter. […] It is unclear whether HNF4α is modulating the insulin promoter directly or indirectly through a downstream target. Overexpression of HNF1α or HNF4α would overcome the repressive effects of BIM5078. The repressive effect of BIM5078 was lost when it was added to T6PNE cells with high levels of induced E47 (FIG. 10). High E47 levels are thought to resemble the normal state of a (3-cell while low levels of E47 to simulate the stress condition.

[2] = test system: endogenous insulin message; assay: Endogenous insulin message in T6PNE cells; type: cell-based, human
From the text: Primary β-cells are in short supply and have a strong tendency to undergo apoptosis when manipulated in culture. Therefore, a β-cell model was used for the studies regarding β-cell growth and differentiation. T6PNE cells were derived from human fetal islets and were engineered to express the transcription factors PDX-1, NeuroD1, and E47, which are all present in the human β-cell. […] Titrations were used to measure the mRNA or protein amount of insulin expression. In order to adapt the cell line for HTS assays, a lentiviral vector expressing the insulin promoter-e green fluorescent protein (GFP) cassette ins-GFP transgene was used to infect T6PNE. As a result, compounds that targeted the insulin promoter could be visibly detected by changes in the green channel (observing GFP). […] Therefore, expression in the transfunctioned cell can be used as a baseline so both up and down regulators of the insulin promoter can be monitored in the screening assays. […] Insulin expression was monitored and visualized by the ins-GFP transgene. Hits were determined and dependent on the ability to differentiate between a baseline condition and the corresponding positive or negative control. […]
A few of these were selected for further evaluation. […] The initial confirmatory assay of BIM5078 was performed by measuring the readout of the insulin-GFP transgene. […]

[3] = test system: HBV; assay: HBsAg expression in Huh7 cells transfected with wild type HBV construct (pWTD); type: cell-based, Hepatitis B virus; conditions: GP33 and GP36 doublet bands
From the text: BIM5078 is an HNF4α antagonist and can be useful in treatment of diseases involving HNF4α modulation. There are a number of HNF4α binding sites in the HBV genome, including the enhancer region, the core promoter and the polymerase. BIM5078 can downregulate the core and polymerase, and it has been discovered that it can effectively suppress or eliminate HBV proliferation. Also, the HNF4α binding sites are well-conserved and no mutations of these sites have yet been discovered in the various HBV strains. Thus, targeting HNF4α can circumvent the resistance seen with traditional therapies. […] The ability of the HNF4α antagonist BIM5078 to reduce viral production in Huh7 cells transfected with the wild-type HBV construct (pWTD) was tested. […] The large decrease in the two glycosylation forms of the surface antigen was visualized as doublet bands (FIG. 11).

[4] = biological target: T1, human PPARγ (Homo sapiens, UniProt P37231); assay: PPAR response element (PPRE)-luciferase reporter assay in HeLa cells; type: cell-based; conditions: enhanced by co-transfection with PPARγ expression vector
T1 construct: expressed in transfected cells; host or cells: HeLa cells
T1 sequence (P37231 1-505): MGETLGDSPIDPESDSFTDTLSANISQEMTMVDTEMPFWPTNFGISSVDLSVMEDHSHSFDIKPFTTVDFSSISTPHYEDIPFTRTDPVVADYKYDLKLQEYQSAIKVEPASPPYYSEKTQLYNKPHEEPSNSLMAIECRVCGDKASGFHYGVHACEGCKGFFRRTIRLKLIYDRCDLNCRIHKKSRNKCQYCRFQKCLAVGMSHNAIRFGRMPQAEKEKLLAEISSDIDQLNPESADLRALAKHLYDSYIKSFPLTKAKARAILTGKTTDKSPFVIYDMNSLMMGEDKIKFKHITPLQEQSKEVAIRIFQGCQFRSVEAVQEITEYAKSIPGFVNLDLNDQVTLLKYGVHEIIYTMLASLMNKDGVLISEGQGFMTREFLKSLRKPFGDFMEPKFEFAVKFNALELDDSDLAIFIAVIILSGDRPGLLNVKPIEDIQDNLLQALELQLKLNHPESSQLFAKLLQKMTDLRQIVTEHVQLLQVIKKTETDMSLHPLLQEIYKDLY
Experimental: The core structure of BIM5078, benzimidazole, is related to known PPARγ compounds that functions as agonists or antagonists. BIM5078 was used in a PPAR response element (PPRE)-luciferase reporter assay. HeLa cells were co-transfected with a PPAR response element (PPRE) reporter plasmid and a human PPARγ expression vector. […] Known PPARγ agonists were used as positive controls. The same PPARγ agonist compounds were tested on T6PNE ins-eGFP for their ability to repress the insulin promoter. Known PPARγ agonists are unable to suppress insulin gene transcription. Similarly, other PPAR agonists of the alpha and delta class were also negative in the assay. However, because HNF4α also binds to PPREs, BIM5078's ability to bind HNF4α was further investigated.

[5] = biological target: T2, rat HNF4α LBD (Rattus norvegicus, UniProt P22449); assay: Direct binding by quenching of intrinsic fluorescence of HNF4α LBD; conditions: quenching of Tyr/Trp intrinsic fluorescence
T2 sequence (P22449 147-377 limits assumed): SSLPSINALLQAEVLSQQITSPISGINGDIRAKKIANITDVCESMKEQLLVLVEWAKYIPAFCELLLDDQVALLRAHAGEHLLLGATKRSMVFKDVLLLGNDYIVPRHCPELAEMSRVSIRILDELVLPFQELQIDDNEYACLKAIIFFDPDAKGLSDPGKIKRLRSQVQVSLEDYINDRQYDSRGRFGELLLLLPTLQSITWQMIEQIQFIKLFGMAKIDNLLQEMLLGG
Experimental: FIGS. 12A and 12B show BIM5078 binding to HNF4α ligand-binding domain (LBD). A. Binding of BIM5078 was analyzed by quenching of intrinsic fluorescence of rat HNF4α LBD aromatic amino acids Tyr/Trp. […] B. BIM5078 was docked to rat HNF4α LBD (PDB Code: 1m7w) using the program BioMedCache. […] Moreover, the chloro group of BIM5078 forms a hydrophobic interaction with the side chain of the binding-pocket residue Val 178.

[6] = biological target: T3, HNF4α (Homo sapiens, UniProt P41235); assay: HNF4α subcellular localization; type: cell-based
T3 construct: endogenous in cells
T3 sequence (P41235 1-474): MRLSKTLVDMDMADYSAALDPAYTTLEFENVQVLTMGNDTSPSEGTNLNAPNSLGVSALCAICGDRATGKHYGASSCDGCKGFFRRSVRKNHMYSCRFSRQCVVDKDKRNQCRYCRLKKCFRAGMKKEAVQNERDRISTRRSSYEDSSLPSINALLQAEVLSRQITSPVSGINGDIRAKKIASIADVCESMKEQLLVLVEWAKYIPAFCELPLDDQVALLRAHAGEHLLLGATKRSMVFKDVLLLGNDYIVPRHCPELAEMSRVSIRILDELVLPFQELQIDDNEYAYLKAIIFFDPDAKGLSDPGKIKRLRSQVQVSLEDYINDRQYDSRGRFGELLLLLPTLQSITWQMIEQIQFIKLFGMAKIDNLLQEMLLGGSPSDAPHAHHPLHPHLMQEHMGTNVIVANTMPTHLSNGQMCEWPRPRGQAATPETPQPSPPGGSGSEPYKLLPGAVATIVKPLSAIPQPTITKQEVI
From the text: Many ligands for nuclear receptor subfamilies induce the translocation of their receptors between the cytoplasm and the nucleus.

[7] = test system: human insulin promoter; assay: Insulin promoter-GFP (ins-GFP transgene) assay in T6PNE cells; type: cell-based; conditions: for repression of insulin promoter activity (qualitative): T6PNE ins-eGFP
From the text: Primary β-cells are in short supply and have a strong tendency to undergo apoptosis when manipulated in culture. Therefore, a β-cell model was used for the studies regarding β-cell growth and differentiation. T6PNE cells were derived from human fetal islets and were engineered to express the transcription factors PDX-1, NeuroD1, and E47, which are all present in the human β-cell. […] Titrations were used to measure the mRNA or protein amount of insulin expression. In order to adapt the cell line for HTS assays, a lentiviral vector expressing the insulin promoter-e green fluorescent protein (GFP) cassette ins-GFP transgene was used to infect T6PNE. As a result, compounds that targeted the insulin promoter could be visibly detected by changes in the green channel (observing GFP). […] This increase correlates with that of the endogenous insulin message. Therefore, expression in the transfunctioned cell can be used as a baseline so both up and down regulators of the insulin promoter can be monitored in the screening assays. […] of the insulin promoter are useful for analyzing the governing pathways in diabetes. However, both up and down modulators were screened for. […] Insulin expression was monitored and visualized by the ins-GFP transgene. Hits were determined and dependent on the ability to differentiate between a baseline condition and the corresponding positive or negative control. […]
The HTS was performed in a 384-well format where primed T6PNE cells express the ins-GFP transgene and the test compound was added 24 hours later. […] The Images were then analyzed using algorithms (Jeff Price at the Screening Center at the Burnham Institute). Images of each well were captured in the blue channel (to evaluate cell number), the green channel (a readout for insulin gene expression) and the red channel (to eliminate autofluorescent compounds). […] Furthermore, hits are determined by applying threshold intensity gates on the green channel and counting the number of cells above or below that gate in a given well. […]

[8] = hoFH patients, 10 mg/day added to maximal-dose statin regimen; cited from earlier work

O=[N+]([O-])c1cccc(S(=O)(=O)n2cnc3ccccc32)c1 [BI-6001, 1-(3-Nitrophenylsulfonyl)-1H-benzo[d]imidazole]
melting point: 154 to 156 °C

Cc1nc2ccccc2n1S(=O)(=O)c1cccc([N+](=O)[O-])c1 [BI-6002, 2-Methyl-1-(3-nitrophenylsulfonyl)-1H-benzo[d]imidazole]
melting point: 148 to 150 °C

Cc1nc2ccccc2n1C(=O)c1cc([N+](=O)[O-])ccc1Cl [BI-6009, 1-(2-Chloro-5-nitrobenzoyl)-2-methyl-1H-benzo[d]imidazole]
melting point: 157 to 159 °C

O=C(c1cc([N+](=O)[O-])ccc1Cl)n1cnc2ccccc21 [BI-6010, 1-(2-Chloro-5-nitrobenzoyl)-1H-benzo[d]imidazole]
melting point: 149 to 151 °C

Cc1nc2ccccc2n1C(=O)c1cccc([N+](=O)[O-])c1 [BI-6011, 2-Methyl-1-(3-nitrobenzoyl)-1H-benzo[d]imidazole]
melting point: 120 to 122 °C

O=C(c1cccc([N+](=O)[O-])c1)n1cnc2ccccc21 [BI-6012, 1-(3-Nitrobenzoyl)-1H-benzo[d]imidazole]
melting point: 133 to 135 °C

CCOC(=O)c1ccc(Cl)c(S(=O)(=O)n2c(C)nc3ccccc32)c1 [BI-6013, 1-(5-Carbethoxy-2-chlorophenylsulfonyl)-2-methyl-1H-benzo[d]imidazole]
melting point: 110 to 112 °C

Cc1ccc([N+](=O)[O-])cc1S(=O)(=O)n1cnc2ccccc21 [BI-6016, 1-(2-Methyl-5-nitrobenzenesulfonyl)benzimidazole]
melting point: 159 to 161 °C

Cc1nc2ccccc2n1S(=O)(=O)c1cc([N+](=O)[O-])ccc1Cl [BIM5078, 1-[(2′-chloro-5-nitrophenyl)sulfonyl]-2-methyl-1H-benzimidazole]
effect on HNF1α transcription [1]: decrease the HNF1α transcription | repression of insulin message ([2]; 5 μM, insulin message induced by 1 μM 4-hydroxytamoxifen): 6 fold | repressive effect on insulin expression at high E47 ([2]; T6PNE cells with high levels of induced E47 (high 4OHT)): lost | HBV surface antigen (HBsAg) level [3]: decreased the HBsAg protein expression; also recorded: decreased their levels of surface antigen | activation of PPRE reporter [4]: activated the PPRE | pKd [5]: 7.92 | localization of HNF4α upon compound addition [6]: localized entirely in the nucleus | suppression of GFP expression (insulin-GFP transgene) ([7]; 5 μM, T6PNE cells): up to 30 fold | repression of insulin promoter activity (qualitative) [7]: downregulator of human insulin promoter activity

O=C1[C@H](CC[C@H](O)c2ccc(F)cc2)[C@@H](c2ccc(O)cc2)N1c1ccc(F)cc1 [ezetimibe]
total reduction of LDL-C levels [8]: 27%

CCCCCCCCCCCCCCCC(=O)O [palmitic acid, reference compound]
repression of insulin promoter activity (qualitative) [7]: suppresses the insulin promoter activity in a dose-dependent fashion
